Data reported in ChEMBL document CHEMBL1201862, “PubChem BioAssay data set” (2004).
Calls of active or inactive are those of the source.

Experiments:
[1] = target: T1, Replicative DNA helicase DnaB (Mycobacterium tuberculosis, UniProt P9WMR3); experiment: DnaB intein splicing inhibitors, dose response, biochemical, cell-free fluorescence (AID 449749); type: functional
T1 sequence (P9WMR3 whole entry): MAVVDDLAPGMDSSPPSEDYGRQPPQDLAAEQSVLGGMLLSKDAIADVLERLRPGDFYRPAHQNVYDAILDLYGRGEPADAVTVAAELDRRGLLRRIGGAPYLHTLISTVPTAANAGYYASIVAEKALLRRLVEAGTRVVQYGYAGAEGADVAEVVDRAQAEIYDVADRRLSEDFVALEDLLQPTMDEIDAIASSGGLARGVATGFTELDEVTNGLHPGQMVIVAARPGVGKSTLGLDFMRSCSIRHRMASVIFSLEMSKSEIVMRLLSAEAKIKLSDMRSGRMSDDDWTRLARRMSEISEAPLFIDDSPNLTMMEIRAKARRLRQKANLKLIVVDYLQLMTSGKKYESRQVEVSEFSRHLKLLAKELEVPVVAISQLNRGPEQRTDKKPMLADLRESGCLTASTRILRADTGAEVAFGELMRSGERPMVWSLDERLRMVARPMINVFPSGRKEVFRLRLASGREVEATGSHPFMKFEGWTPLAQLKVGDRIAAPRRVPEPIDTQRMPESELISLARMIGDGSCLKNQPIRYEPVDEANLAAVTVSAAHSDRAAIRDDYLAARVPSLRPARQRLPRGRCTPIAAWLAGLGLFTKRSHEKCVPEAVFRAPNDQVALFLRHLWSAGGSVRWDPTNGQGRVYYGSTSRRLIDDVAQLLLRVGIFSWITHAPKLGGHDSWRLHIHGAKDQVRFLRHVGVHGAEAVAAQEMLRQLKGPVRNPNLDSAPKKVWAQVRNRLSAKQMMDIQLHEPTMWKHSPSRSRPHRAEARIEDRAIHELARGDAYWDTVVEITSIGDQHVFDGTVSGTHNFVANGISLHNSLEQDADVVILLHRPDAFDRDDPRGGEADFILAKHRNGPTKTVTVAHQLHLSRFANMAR

Fatty acid synthase [2] = target: T2, Fatty acid synthase (Homo sapiens, UniProt P49327); experiment: FAS thioesterase domain inhibitors, dose response, biochemical, kinetic fluorescence intensity (AID 624326); type: functional;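 also: rate of fluorescence rise from hydrolysis of a fluorogenic O-methyl fluorescein ester substrate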
T2 sequence (P49327 whole entry, the tested form may be a part): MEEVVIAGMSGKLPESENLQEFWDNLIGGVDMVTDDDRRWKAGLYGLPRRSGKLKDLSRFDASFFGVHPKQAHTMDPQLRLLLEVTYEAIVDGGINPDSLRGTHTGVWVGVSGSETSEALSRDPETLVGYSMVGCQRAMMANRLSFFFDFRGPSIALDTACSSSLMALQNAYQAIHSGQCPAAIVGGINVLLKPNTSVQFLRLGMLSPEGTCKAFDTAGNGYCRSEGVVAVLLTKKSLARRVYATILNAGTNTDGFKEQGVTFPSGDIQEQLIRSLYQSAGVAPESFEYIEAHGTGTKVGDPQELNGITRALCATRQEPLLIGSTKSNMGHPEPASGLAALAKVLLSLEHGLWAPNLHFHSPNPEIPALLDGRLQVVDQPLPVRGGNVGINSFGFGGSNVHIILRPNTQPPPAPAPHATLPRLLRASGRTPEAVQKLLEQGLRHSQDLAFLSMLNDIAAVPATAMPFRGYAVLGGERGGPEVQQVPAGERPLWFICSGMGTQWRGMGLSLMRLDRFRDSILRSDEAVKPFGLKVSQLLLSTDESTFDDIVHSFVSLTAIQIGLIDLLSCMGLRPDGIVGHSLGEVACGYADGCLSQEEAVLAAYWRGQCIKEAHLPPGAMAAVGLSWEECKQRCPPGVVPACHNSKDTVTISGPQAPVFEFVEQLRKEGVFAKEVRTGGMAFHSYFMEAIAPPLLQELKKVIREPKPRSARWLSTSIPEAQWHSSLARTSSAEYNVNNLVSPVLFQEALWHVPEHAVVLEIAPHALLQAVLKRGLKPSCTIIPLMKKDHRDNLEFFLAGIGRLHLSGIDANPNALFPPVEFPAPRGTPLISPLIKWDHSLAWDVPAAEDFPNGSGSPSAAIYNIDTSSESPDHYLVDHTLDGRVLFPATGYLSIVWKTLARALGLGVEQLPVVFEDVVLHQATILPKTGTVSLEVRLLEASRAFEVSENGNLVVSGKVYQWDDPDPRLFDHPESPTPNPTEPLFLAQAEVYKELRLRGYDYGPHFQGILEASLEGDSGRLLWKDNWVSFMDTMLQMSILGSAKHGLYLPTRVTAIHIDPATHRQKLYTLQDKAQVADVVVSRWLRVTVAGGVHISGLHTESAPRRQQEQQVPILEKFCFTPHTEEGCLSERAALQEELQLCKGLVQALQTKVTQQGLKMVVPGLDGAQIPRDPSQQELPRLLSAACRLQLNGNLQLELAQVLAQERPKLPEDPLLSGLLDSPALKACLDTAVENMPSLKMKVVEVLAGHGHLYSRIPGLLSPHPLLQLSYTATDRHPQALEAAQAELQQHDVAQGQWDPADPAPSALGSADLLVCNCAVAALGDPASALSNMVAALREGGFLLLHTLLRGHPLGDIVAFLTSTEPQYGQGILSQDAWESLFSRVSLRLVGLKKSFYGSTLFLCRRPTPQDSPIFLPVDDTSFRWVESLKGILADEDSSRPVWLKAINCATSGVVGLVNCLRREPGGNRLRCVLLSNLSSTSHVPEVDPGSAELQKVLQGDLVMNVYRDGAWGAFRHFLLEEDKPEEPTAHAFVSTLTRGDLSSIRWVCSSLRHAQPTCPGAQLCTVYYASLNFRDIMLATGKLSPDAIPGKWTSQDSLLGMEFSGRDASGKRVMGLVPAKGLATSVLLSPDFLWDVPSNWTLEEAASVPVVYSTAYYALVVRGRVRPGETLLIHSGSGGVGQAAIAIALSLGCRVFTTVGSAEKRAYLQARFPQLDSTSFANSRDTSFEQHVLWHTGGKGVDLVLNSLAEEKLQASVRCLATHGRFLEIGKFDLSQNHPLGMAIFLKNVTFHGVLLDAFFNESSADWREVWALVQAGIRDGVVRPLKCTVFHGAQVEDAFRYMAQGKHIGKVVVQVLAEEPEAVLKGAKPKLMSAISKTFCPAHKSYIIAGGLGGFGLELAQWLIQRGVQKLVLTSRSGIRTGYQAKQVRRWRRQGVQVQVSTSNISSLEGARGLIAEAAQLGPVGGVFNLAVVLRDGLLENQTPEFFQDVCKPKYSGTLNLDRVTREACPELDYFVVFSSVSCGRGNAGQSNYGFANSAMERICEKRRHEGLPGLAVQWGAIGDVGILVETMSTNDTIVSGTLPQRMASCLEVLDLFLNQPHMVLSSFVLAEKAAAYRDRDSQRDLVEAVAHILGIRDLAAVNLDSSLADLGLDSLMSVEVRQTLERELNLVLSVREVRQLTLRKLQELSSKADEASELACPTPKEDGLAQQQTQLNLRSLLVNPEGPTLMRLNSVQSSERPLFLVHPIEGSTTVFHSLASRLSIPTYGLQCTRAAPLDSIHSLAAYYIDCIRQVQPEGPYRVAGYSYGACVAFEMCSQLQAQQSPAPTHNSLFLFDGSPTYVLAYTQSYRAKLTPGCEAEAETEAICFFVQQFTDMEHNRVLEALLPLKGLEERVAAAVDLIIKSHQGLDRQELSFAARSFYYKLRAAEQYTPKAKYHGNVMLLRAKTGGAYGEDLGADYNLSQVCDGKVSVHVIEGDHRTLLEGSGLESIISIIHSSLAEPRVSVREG

[3] = HEp-2 cell cytotoxicity, dose response, cytotoxicity control for RSV inhibitor project, HTS (AID 2410); type: functional; conditions: human respiratory syncytial virus
Protein RecA = target: T3, Protein RecA (Mycobacterium tuberculosis, UniProt P9WHJ3); experiment: Fluorescence Cell-Free Homogeneous Dose Retest to Identify Inhibitors of RecA-Intein Splicing Activity. [Related pubchem assays (depositor defined):AID2097, AID2223, AID489010, AID492950]; type: functional
T3 sequence (P9WHJ3 whole entry): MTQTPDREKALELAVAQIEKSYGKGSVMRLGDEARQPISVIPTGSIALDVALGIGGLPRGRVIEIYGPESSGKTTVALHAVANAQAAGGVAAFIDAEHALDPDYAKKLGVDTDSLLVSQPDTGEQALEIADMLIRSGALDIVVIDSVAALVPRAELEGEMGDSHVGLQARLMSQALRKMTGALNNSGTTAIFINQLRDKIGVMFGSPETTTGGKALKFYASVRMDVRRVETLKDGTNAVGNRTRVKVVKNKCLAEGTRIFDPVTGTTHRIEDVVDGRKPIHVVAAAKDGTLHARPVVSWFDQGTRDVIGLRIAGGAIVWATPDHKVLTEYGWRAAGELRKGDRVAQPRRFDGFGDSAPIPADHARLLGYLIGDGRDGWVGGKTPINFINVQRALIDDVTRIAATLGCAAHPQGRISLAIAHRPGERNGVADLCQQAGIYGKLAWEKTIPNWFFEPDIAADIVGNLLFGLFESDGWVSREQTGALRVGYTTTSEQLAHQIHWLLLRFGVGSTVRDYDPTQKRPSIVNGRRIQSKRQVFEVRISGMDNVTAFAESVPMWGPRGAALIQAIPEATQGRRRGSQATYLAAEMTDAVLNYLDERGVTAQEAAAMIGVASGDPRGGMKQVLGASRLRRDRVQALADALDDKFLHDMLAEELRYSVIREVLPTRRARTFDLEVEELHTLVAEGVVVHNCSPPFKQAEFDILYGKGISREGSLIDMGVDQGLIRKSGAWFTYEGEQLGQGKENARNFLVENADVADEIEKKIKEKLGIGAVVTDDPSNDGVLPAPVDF

[4] = target: T4, Type-1 angiotensin II receptor (Homo sapiens, UniProt P30556); experiment: AT1 receptor antagonists, dose response, selectivity assay for APJ receptor antagonist project, cell-based, uHTS hits (AID 463214); type: functional;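 also: antagonist potency against angiotensin II stimulated AT1 response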
T4 sequence (P30556 whole entry): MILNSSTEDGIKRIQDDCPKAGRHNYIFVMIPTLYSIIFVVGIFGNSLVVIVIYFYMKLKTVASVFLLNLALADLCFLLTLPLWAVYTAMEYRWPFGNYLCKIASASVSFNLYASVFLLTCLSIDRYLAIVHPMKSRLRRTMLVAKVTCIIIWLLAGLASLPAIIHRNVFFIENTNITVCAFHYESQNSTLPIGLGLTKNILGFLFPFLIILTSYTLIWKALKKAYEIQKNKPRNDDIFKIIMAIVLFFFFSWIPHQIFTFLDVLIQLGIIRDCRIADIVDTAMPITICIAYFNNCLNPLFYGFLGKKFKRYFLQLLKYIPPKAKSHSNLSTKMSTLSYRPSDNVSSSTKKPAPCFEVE

Beta-galactosidase = Beta-galactosidase (Escherichia coli, UniProt Q8VNN2); experiment: PubChem AID 485352; type: functional
Fatty acid synthase [5] = target: T2, Fatty acid synthase; experiment: FAS thioesterase domain inhibitors, dose response, biochemical, endpoint fluorescence intensity, uHTS hits (AID 624327); type: functional;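 also: fluorescence from hydrolysis of an O-methyl fluorescein acyl ester substrate by the enzyme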
[6] = cytotoxicity in OVCAR8 ovarian cancer cells, dose response, PAX8 project, cell-based, plate reader, dry powder samples (AID 743197); type: functional; conditions: OVCAR-8
Paired box protein Pax-8 = Paired box protein Pax-8 (Homo sapiens, UniProt Q06710); experiment: inhibitors of PAX8-driven TPO luciferase reporter, dose response, RMG-I cells, cherry-pick (AID 687027); type: functional, cell-based;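 also: luciferase reporter driven by Pax8 target thyroperoxidase promoter measured by SteadyGlo luminescence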
Sequence of Paired box protein Pax-8 (Q06710 whole entry, the tested form may be a part): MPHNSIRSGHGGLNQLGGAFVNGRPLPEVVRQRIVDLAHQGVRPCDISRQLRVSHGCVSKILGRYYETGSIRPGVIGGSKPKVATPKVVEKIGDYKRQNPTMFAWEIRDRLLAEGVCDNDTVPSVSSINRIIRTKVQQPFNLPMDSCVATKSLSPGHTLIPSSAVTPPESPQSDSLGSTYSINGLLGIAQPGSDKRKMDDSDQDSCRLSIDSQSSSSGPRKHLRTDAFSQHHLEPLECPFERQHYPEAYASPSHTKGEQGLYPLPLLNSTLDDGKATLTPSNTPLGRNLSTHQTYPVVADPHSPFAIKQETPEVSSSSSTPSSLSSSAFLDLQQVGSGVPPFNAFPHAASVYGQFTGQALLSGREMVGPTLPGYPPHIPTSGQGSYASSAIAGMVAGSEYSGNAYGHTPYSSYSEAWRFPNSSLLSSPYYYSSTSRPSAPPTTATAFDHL

[7] = target: Disintegrin and metalloproteinase domain-containing protein 17 (Homo sapiens, UniProt P78536); experiment: ADAM17 protease inhibitors, dose response, counter-screen for ADAM10 exosite inhibitor project, biochemical, quenched FRET substrate (AID 743253)
Sequence of Disintegrin and metalloproteinase domain-containing protein 17 (P78536 whole entry, the tested form may be a part): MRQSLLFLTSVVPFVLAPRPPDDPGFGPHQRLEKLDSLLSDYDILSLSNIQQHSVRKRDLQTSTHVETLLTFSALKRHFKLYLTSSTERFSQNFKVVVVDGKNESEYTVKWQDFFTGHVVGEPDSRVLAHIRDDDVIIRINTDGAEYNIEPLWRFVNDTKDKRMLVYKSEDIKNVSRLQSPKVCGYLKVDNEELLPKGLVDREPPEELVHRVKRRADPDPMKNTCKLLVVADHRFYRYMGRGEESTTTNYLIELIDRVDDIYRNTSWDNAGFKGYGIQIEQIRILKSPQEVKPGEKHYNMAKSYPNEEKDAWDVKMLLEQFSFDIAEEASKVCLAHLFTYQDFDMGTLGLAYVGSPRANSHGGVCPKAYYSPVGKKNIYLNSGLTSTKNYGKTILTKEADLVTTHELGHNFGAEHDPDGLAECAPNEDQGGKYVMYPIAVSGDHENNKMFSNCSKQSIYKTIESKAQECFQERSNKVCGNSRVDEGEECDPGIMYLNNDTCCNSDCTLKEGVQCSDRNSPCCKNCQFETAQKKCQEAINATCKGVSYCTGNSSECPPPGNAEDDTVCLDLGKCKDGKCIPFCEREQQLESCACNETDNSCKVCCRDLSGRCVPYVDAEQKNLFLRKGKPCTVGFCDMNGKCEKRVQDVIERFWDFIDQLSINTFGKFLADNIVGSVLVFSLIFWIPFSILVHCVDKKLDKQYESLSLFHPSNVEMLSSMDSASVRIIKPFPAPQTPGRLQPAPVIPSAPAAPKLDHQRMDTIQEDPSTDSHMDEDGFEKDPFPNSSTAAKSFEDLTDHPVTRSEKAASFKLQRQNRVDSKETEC

Cytochrome P450 2D6 = Cytochrome P450 2D6 (Homo sapiens, UniProt P10635);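 also: CYP2D6 member of a cytochrome P450 panel assay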
Sequence of Cytochrome P450 2D6 (P10635 whole entry): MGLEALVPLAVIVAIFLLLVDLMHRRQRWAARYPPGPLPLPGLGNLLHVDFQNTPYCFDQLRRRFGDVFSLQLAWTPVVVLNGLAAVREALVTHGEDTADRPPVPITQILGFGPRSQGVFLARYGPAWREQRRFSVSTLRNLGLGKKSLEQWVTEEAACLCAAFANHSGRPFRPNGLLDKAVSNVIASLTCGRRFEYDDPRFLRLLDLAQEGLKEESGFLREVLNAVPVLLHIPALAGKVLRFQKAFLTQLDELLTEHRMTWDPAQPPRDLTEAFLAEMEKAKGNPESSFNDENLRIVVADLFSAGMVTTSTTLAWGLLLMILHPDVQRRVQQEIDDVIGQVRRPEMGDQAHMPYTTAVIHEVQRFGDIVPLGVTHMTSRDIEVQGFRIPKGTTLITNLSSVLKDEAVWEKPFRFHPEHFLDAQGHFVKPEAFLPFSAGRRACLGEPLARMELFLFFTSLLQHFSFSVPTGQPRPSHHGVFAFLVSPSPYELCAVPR

Cytochrome P450 2C9 = Cytochrome P450 2C9 (Homo sapiens, UniProt P11712)
Sequence of Cytochrome P450 2C9 (P11712 whole entry): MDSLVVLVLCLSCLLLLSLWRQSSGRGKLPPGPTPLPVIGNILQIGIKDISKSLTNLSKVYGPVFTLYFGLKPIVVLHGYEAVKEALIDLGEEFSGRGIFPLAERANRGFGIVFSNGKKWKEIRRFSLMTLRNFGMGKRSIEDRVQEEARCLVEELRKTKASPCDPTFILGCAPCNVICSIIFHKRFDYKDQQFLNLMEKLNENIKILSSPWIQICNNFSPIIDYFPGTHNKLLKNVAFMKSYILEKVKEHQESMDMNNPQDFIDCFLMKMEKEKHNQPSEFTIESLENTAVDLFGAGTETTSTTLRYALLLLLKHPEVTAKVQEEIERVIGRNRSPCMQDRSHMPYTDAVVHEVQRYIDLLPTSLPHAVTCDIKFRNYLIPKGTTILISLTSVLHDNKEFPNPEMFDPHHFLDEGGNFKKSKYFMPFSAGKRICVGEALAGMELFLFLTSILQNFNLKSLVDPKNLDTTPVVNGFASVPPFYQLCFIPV

HEK293 = experiment: HEK293T cell cytotoxicity, dose response, cytotoxicity control, ATP luminescence, cherry-pick samples (AID 687005); type: functional, cell-based; conditions: Homo sapiens;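 also: cells exposed to compound for 48 hours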
[8] = HEK293 Cytotoxicity Assay Measured in Cell-Based System Using Plate Reader - 7071-01_Inhibitor_Dose_CherryPick_Activity_Set2.; type: functional
[9] = LGR2 antagonists, dose response, cell-based, HEK293, CRE-luciferase reporter, cherry pick, set 2 (AID 743343); type: functional;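 also: transfected cells were stimulated with diluted bursicon conditioned medium after compound addition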
[10] = MC4R antagonists, dose response, counter-screen for LGR2 antagonist project, cell-based, plate reader, cherry pick (AID 743444); type: functional;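 also: transfected HEK 293 cells stimulated with alpha-MSH peptide; potency of inhibitors of the alpha-MSH evoked signal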
[11] = A549 cell cytotoxicity, dose response, cytotoxicity control, plate reader, cherry-pick, antagonist series (AID 743412); type: functional, cell-based
[12] = inhibitors of HIV Env-driven cell fusion, dose response, cherry-pick (AID 652057); type: functional, cell-based
[13] = inhibitors of clade B AD8 Env fusion, dose response, cell-based, cherry-pick (AID 652062); type: functional;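 also: luciferase signal from cell-cell fusion driven by HIV-1 clade B AD8 Env; potency is for inhibitors of fusion seen as a drop in luminescence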
[14] = NIH:OVCAR-3 ovarian cancer cell cytotoxicity, dose response, PAX8 inhibitor project, plate reader, dry powder samples (AID 743044); type: functional, cell-based
[15] = target: T5, Histone-lysine N-methyltransferase NSD2 (Homo sapiens, UniProt O96028); type: biochemical
T5 sequence (O96028 whole entry): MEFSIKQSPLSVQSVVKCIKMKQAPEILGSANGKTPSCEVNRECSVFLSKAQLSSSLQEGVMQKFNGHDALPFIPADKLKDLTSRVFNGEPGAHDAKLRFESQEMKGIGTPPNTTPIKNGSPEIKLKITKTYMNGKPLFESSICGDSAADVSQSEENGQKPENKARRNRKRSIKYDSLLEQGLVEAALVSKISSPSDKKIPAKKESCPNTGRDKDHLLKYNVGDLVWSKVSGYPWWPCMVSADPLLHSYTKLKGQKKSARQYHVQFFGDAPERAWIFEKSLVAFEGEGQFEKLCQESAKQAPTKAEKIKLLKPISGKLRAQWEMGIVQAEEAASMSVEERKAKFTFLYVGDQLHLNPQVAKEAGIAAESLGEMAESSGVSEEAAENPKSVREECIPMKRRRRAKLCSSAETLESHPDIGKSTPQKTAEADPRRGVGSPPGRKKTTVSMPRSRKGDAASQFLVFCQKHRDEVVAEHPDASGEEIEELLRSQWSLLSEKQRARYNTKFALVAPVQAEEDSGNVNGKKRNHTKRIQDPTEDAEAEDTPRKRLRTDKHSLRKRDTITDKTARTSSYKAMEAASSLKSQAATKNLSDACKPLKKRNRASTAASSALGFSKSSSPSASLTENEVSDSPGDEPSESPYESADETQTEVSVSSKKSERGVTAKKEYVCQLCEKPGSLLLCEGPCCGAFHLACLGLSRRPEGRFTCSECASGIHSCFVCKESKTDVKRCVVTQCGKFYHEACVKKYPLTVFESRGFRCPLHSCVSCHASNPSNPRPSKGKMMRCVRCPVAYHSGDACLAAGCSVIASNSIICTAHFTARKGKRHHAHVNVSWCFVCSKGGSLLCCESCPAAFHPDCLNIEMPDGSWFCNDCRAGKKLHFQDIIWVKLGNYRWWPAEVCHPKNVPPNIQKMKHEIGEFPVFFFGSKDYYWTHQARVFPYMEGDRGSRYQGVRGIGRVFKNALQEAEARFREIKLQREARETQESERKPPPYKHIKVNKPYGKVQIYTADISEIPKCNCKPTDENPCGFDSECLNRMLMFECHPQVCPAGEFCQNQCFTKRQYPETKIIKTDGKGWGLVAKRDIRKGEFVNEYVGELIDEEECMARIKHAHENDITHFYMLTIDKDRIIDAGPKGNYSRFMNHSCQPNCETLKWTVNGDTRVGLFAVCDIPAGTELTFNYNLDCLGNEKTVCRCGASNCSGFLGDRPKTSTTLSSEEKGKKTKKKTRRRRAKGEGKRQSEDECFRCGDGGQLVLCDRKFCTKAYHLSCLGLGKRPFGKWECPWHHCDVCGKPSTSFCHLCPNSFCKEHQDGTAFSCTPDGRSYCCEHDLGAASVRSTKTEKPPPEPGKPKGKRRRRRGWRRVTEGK

[16] = target: T6, RNA-binding protein pos-1 (Caenorhabditis elegans, UniProt G5EF15); experiment: inhibitors of POS-1/mex-3 RNA binding, dose response, biochemical, fluorescence polarization (AID 1964);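 also: purified POS-1 fused to maltose binding protein made in E. coli; potency of compounds blocking POS-1 binding to fluorescent RNA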
T6 sequence (G5EF15 whole entry): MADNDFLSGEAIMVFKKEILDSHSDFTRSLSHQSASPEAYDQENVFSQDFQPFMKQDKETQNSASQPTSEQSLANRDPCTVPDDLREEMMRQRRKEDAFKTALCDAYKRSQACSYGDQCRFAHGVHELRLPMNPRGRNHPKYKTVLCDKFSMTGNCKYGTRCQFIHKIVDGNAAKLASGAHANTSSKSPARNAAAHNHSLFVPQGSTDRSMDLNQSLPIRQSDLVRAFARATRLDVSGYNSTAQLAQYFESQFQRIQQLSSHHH

[17] = target: T7, Zinc finger protein mex-5 (Caenorhabditis elegans, UniProt Q9XUB2); experiment: MEX-5/TCR-2 RNA interaction inhibitors, dose response, biochemical, C. elegans, fluorescence polarization (AID 1960)
T7 sequence (Q9XUB2 whole entry): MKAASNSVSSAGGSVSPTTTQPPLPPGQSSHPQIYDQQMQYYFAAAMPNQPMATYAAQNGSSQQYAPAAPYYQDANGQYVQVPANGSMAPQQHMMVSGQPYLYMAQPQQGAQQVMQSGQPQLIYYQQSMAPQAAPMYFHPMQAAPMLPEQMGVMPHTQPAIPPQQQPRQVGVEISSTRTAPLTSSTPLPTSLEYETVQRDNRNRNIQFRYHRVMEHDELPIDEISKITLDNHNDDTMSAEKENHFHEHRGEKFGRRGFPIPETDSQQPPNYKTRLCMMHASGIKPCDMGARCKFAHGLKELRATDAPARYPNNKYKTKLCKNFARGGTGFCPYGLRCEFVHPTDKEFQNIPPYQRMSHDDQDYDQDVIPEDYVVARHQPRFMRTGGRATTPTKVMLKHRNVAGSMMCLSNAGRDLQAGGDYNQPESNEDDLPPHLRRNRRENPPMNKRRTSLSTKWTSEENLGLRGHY

## CCCSc1cc(NCCOC(=O)CCC)c([N+](=O)[O-])c2nonc12
[1]
  AC50: 55 µM (active)
Fatty acid synthase [2]
  IC50: 16.5 µM (active)
[3]
  CC50: 14.8 µM (active)
Protein RecA
  EC50: 4.48 µM (active)
[4]
  IC50: 11 µM (active)
Beta-galactosidase
  EC50: > 40 µM (inactive)
Fatty acid synthase [5]
  IC50: 16.3 µM (active)

## O=C(C[C@H]1CC[C@@H]2[C@H](COC[C@@H](O)CN2S(=O)(=O)c2cccc(Cl)c2)O1)Nc1ccc(-c2ccccc2)cc1
[6]
  AC50: > 70 µM (inactive)
Paired box protein Pax-8
  AC50: 8.33 µM (active)

## COc1cc(/C=N/O)cc(Br)c1OCc1ccc(Cl)cc1
[7]
  IC50: > 69.5 µM (inactive)
Cytochrome P450 2D6
  AC50: 17.8 µM (inconclusive)
Cytochrome P450 2C9
  AC50: inconclusive

## C[C@H]1CCCCO[C@H](CN(C)Cc2ccncc2)[C@@H](C)CN([C@@H](C)CO)C(=O)c2cc(NC(=O)CCCN(C)C)ccc2O1
HEK293
  AC50: 38.1 µM (active)
[8]
  AC50: 38.1 µM (active)

## CCCCN1CCCCC1C(=O)Nc1c(C)cccc1C (configuration not stated) [BUPIVACAINE]
HEK293
  AC50: 35.7 µM (active)
[8]
  AC50: 35.7 µM (active)

## Cc1ccccc1C(=O)Nc1ccc2c(c1)OCCO2
[9]
  AC50: 10.5 µM (active)
[10]
  AC50: 11.1 µM (active)
[11]
  AC50: > 52 µM (inactive)

## O=C(Nc1ccc(C(F)(F)F)cc1)Nc1ccc2c(c1)[C@@H]1C[C@H](CC(=O)N3CCc4ccccc4C3)O[C@H](CO)[C@@H]1O2
[6]
  AC50: 48.6 µM (active)
Paired box protein Pax-8
  AC50: 9.5 µM (active)
[12]
  AC50: 14.2 µM (active)
[13]
  AC50: 18.5 µM (active)
[14]
  AC50: 34.4 µM (active)

## N#CC(C#N)=Cc1cccn1-c1ccc(C(=O)O)cc1
[15]
  AC50: > 20 µM (inactive)
[16]
  EC50: > 300 µM (not active)
[17]
  EC50: 160 µM (active)
